The subject of one test is S. pneumoniae ATCC 51422. Briefly: NCCLS broth microdilution MIC, S. pneumoniae (PRSP). Type of test: cell-based, Streptococcus pneumoniae. The following applies: organism I = S. pneumoniae ATCC 51422 (PRSP). From the text:
(§1) Compounds according to this invention were screened for their in vitro activities against selected species of bacteria and fungi. […]
On the technique in general: Broth dilution looks for growth in wells or tubes with falling amounts of substance.

Another test relates to E. faecalis ATCC 29212. The experiment in a line: NCCLS broth microdilution MIC, E. faecalis. Type of test: cell-based. To be noted: organism C = E. faecalis ATCC 29212; for MIC: Enterococcus faecalis, ATCC29212, read-out: Minimum Inhibitory Concentration (MIC).
Text: as §1

A further test has as its system C. albicans ATCC 38247. Briefly: Antifungal MIC, C. albicans. Type of test: cell-based, Candida albicans. To be noted: organism B = C. albicans ATCC 38247; for MIC: Candida albicans, ATCC38247, read-out: Minimum Inhibitory Concentration (MIC).
Text: as §1

The test system of a further test is S. pneumoniae ATCC 49619. The experiment in a line: NCCLS broth microdilution MIC, S. pneumoniae ATCC 49619. Type of test: cell-based, Streptococcus pneumoniae. To be noted: organism H = S. pneumoniae ATCC 49619; for MIC: Streptococcus pneumoniae, ATCC49619, read-out: Minimum Inhibitory Concentration (MIC).
Text: as §1

Test [1] concerns the target target sequence AGTACT, 310 base pair dsDNA restriction fragment of Plasmid A. The experiment in a line: Quantitative DNase I footprint titration, AGTACT. Type of test: binding. To be noted: 310 bp/A, pH 7.0, 22° C., read-out: Dissociation Constant Kd.
Another test has as its system S. aureus ATCC 13709. Briefly: NCCLS broth microdilution MIC, S. aureus (MSSA). Type of test: cell-based, Staphylococcus aureus. The following applies: organism E = S. aureus ATCC 13709 (MSSA); for MIC: Staphylococcus aureus, read-out: Minimum Inhibitory Concentration (MIC).
Text: as §1

The test system of another test is B. cereus ATCC 11778. The experiment in a line: NCCLS broth microdilution MIC, B. cereus. Type of test: cell-based, Bacillus cereus. To be noted: organism A = B. cereus ATCC 11778; for MIC: Bacillus cereus, ATCC11778, read-out: Minimum Inhibitory Concentration (MIC).
Text: as §1

The test system of test [2] is S. epidermidis ATCC 12228. The experiment in a line: NCCLS broth microdilution MIC, S. epidermidis. The following applies: organism G = S. epidermidis ATCC 12228. Type of test: cell-based, Staphylococcus epidermidis.
Text: as §1

In another test the test system is E. faecium ATCC 51559. Briefly: NCCLS broth microdilution MIC, E. faecium (VRE). Type of test: cell-based, Enterococcus faecium. The following applies: organism D = E. faecium ATCC 51559 (VRE).
Text: as §1

Test [3] addresses target sequence ACAATTAAT, 352 bp fragment of Plasmid B. Briefly: Quantitative DNase I footprint titration, […]. To be noted: 352 bp/B, pH 7.0, 22° C., read-out: Dissociation Constant Kd. Type of test: binding.
The test system of another test is S. aureus ATCC 27660. The experiment in a line: NCCLS broth microdilution MIC, S. aureus (MRSA). Type of test: cell-based, Staphylococcus aureus. The following applies: organism F = S. aureus ATCC 27660 (MRSA).
Text: as §1

Test [4] deals with target sequence AATTAATCAT, 352 base pair dsDNA restriction fragment of Plasmid B. The experiment in a line: Quantitative DNase I footprint titration, […]. Type of test: binding. The following applies: 352 bp/B, pH 7.0, 22° C., read-out: Dissociation Constant Kd.

≈ marks a conversion by molar mass, not a printed value. Some results are limits rather than exact numbers.

Broadly, the Kd is the constant that tells how readily two partners part at equilibrium. For `Cn1cc(NC(=O)c2cc3ccccc3cn2)cc1C(=O)Nc1cc(C(=O)Nc2cc(C(=O)NCCN3CCCCC3)ns2)n(C)c1` [Ib-59], the “Minimum Inhibitory Concentration (MIC)” value with S. pneumoniae ATCC 51422 is “+++ (+++ = MIC ≦ 4)”; in the test with E. faecalis ATCC 29212, “+++ (+++ = MIC ≦ 4)”; in the test on C. albicans ATCC 38247, >32 µg/mL; with S. pneumoniae ATCC 49619 it was “+++ (+++ = MIC ≦ 4)”; in the test on S. aureus ATCC 13709 it was “+++ (+++ = MIC ≦ 4)”; in the test with B. cereus ATCC 11778, “+++ (+++ = MIC ≦ 4)”. Moreover, the “Minimum Inhibitory Concentration (MIC)” value (in test [2]; with E. faecium ATCC 51559; in the test with S. aureus ATCC 27660) was “+++ (+++ = MIC ≦ 4)” throughout. The Kd stood at 50 nM in test [1] and 1 nM in test [3].

For `Cn1cc(NC(=O)c2cc(NC(=O)c3cc(NC(=O)c4cc5ccccc5cn4)no3)cn2C)cc1C(=O)NCCN1CCOCC1` [Ib-60], the MIC was < 4 µg/mL in the test with E. faecalis ATCC 29212; > 32 µg/mL with C. albicans ATCC 38247; < 4 µg/mL with S. pneumoniae ATCC 49619; < 4 µg/mL in the test with S. aureus ATCC 13709; < 4 µg/mL in the test with B. cereus ATCC 11778. The Kd in [4] was determined as 5 nM; in test [1], 10 nM.

Take `Cn1cc(NC(=O)c2cc3ccccc3cn2)cc1C(=O)Nc1cc(C(=O)Nc2cc(C(=O)NCCN3CCOCC3)n(CCN3CCOCC3)c2)n(C)c1` [Ib-56]: the MIC in the test with S. pneumoniae ATCC 51422 (Streptococcus pneumoniae, read-out: Minimum Inhibitory Concentration (MIC)) was < 4 µg/mL; in the test with E. faecalis ATCC 29212, < 4 µg/mL; with C. albicans ATCC 38247 it was > 32 µg/mL; in the test on S. pneumoniae ATCC 49619 it was < 4 µg/mL; with S. aureus ATCC 13709, < 4 µg/mL; in the test with B. cereus ATCC 11778 it was < 4 µg/mL. In addition, the MIC in test [2] (Staphylococcus epidermidis, ATCC12228, read-out: Minimum Inhibitory Concentration (MIC)) is < 4 µg/mL; in the test with E. faecium ATCC 51559 (Enterococcus faecium, read-out: Minimum Inhibitory Concentration (MIC)) it was 4 to 12 µg/mL (≈ 5.33 to 16 µM); in the test on S. aureus ATCC 27660 (Staphylococcus aureus, read-out: Minimum Inhibitory Concentration (MIC)), < 4 µg/mL. The figures for the Kd in test [4] and in [1] were 5 nM and < 100 nM, respectively.
